Several values for one entry are separate records, joined by “and”; a condition that tells them apart may be missing. Equal values may be shown once. Entries after “also recorded” stand apart in the source; their conditions may differ.
How the values were obtained:
C8-D1A cells = test: Wst-1 cell viability assay after H2O2 + TNFα stress, astrocyte cell line
Description: It is well-known in the art that inflammation and oxidative stress are significant contributors to neurodegeneration. H2O2 is commonly used in experiments to simulate oxidate stress. […] Accordingly, in this in vitro assay, TNF-alpha and hydrogen peroxide (H2O2) were used as stressors to induce cell death to model ALS.
Cell viability after treatment with H2O2 and TNFα was examined in NCS34 cells, a mouse motor neuron cell line, and in C8-D1A cells, a mouse astrocyte cell line (from the American Type Tissue Culture Collection). The protocol for assessing the activity of any of the compounds disclosed herein in cultured cells is as follows:
Day 1: Cells were plated into 96 well plates at a confluency of 60%. Cells were maintained in growth medium consisting of Dulbecco's Modified Essential Medium (DMEM, LifeTechnologies Inc.) supplemented with 10% fetal bovine serum (Hyclone) and incubated in a tissue culture incubator at 37° C., 95% […] and 5% CO2.
Day 2: The growth medium was changed to 200 μl/well DMEM without fetal bovine serum. Additional agents, such as varying concentrations of H2O2 (Sigma Aldrich Inc.), TNFalpha, and a vehicle control or any of the compounds disclosed herein, e.g., NPD1 (Anida Pharma Inc.) were added to the growth medium. The cells were incubated overnight for 24 hours in a tissue culture incubator at 37° C., 95% […] and 5% CO2
Day 3: After 24 hours, 20 μl of Wst-1 cell viability reagent (Roche Applied Sciences Inc.) was added to each well (1:10 dilution in growth medium). Mix well by gently rocking the plate side-to-side. The cells were incubated at 37° C. for 60 minutes. […] A background control (or blank) for the growth medium and WST-1 reagent (without cells) can also be measured. The 630 nm background absorbance values are then subtracted from the 450 nm measurement for a normalized 450 nm absorbance value.
NPD1 activity was analyzed in C8-D1A cells, a mouse astrocyte cell line (American Type Tissue Culture Collection). C8-D1A cells were treated with increasing concentrations of H2O2 (1 μM, 10 μM, 50 μM, 100 μM, 400 μM and 800 μM) and 10 ng/ml TNFα without NPD1, or with 50 nM or 100 nM NPD1 for 24 hours. Cell viability was determined by Wst-1 cell viability assay, as described in Example 1. Each sample was performed in triplicate.

[1] = Wst-1 cell viability assay after H2O2 + TNFα stress, motor neuron cell line; format: cell-based, mouse; settings: mouse; NPD 100 nM alone, 24 hrs incub., control (veh.) = 100
Procedure: (§1) Pharma Inc.) were added to the growth medium. […] NPD1, or Compound 1 in Table 1, was analyzed for activity in NCS34 cells, a mouse motor neuron cell line. […] Treatment with H2O2 and 10 ng/ml TNFα caused between 26-37% cell death in the motor neurons (FIG. 1).

NSC34 cells = test: as above; format: cell-based, mouse
Procedure: as §1

[2] = 0 uM H2O2 + 10 ng/ml TNFa, 50 nM NPD1, 24 hours
[3] = 0 uM H2O2 + 10 ng/ml TNFa, 100 nM NPD1, 24 hours
[4] = 25 uM H2O2 + 10 ng/ml TNFa, 50 nM NPD1, 24 hours
[5] = 25 uM H2O2 + 10 ng/ml TNFa, 100 nM NPD1, 24 hours
[6] = 50 uM H2O2 + 10 ng/ml TNFa, 50 nM NPD1, 24 hours
[7] = 50 uM H2O2 + 10 ng/ml TNFa, 100 nM NPD1, 24 hours
[8] = 100 uM H2O2 + 10 ng/ml TNFa, 50 nM NPD1, 24 hours
[9] = 100 uM H2O2 + 10 ng/ml TNFa, 100 nM NPD1, 24 hours
[10] = 200 uM H2O2 + 10 ng/ml TNFa, 50 nM NPD1, 24 hours
[11] = 200 uM H2O2 + 10 ng/ml TNFa, 100 nM NPD1, 24 hours
[12] = 400 uM H2O2 + 10 ng/ml TNFa, 50 nM NPD1, 24 hours
[13] = 400 uM H2O2 + 10 ng/ml TNFa, 100 nM NPD1, 24 hours
[14] = 800 uM H2O2 + 10 ng/ml TNFa, 50 nM NPD1, 24 hours
[15] = 800 uM H2O2 + 10 ng/ml TNFa, 100 nM NPD1, 24 hours
[16] = Mus musculus, C8-D1A, read-out: % cell viability
[17] = NPD 100 nM + TNFa 10 ng/ml + H2O2 1 uM, 24 hrs
[18] = NPD 100 nM + TNFa 10 ng/ml + H2O2 10 uM, 24 hrs
[19] = NPD 100 nM + TNFa 10 ng/ml + H2O2 50 uM, 24 hrs
[20] = NPD 100 nM + TNFa 10 ng/ml + H2O2 100 uM, 24 hrs
[21] = NPD 100 nM + TNFa 10 ng/ml + H2O2 400 uM, 24 hrs
[22] = NPD 100 nM + TNFa 10 ng/ml + H2O2 800 uM, 24 hrs

With `CC/C=C\C[C@H](O)\C=C/C=C/C=C/[C@H](O)C/C=C\C/C=C\CCC(=O)[O-].[Na+]` [NPD1, Sodium 4Z,7Z,10R,11E,13E,15Z,17S, 19Z)-10,17-dihydroxydocosa-4,7,11,13,15,19-hexaenoate] the “absorbance after subtraction of background signal, avg” value (“absorbance after subtraction … avg” for short) (C8-D1A cells; [2]) was 0.586 and 0.5861, the “absorbance after subtraction of background signal, replicates 1-3” value (“absorbance after subtraction … replicates 1-3” for short) (C8-D1A cells; [2]) was 0.561 and 0.632 and 0.565 and the “raw absorbance Avg.” value (C8-D1A cells; [2]) was 1.03. For the same molecule, the “raw absorbance, replicates 1-3” value (C8-D1A cells; [2]) was 1.0047 and 1.0764 and 1.0093, the “absorbance after subtraction … avg” value (C8-D1A cells; [3]) was 0.593 and 0.5931 and the “absorbance after subtraction … replicates 1-3” value (C8-D1A cells; [3]) was 0.565 and 0.587 and 0.627. The “raw absorbance Avg.” value (C8-D1A cells; [3]) was 1.037, the “raw absorbance, replicates 1-3” value (C8-D1A cells; [3]) was 1.0312 and 1.071 and 1.009 and the “astrocyte cell survival and viability (in words)” value (C8-D1A cells; 50 nM or 100 nM NPD1, H2O2 + 10 ng/ml TNFα, 24 hours) was “increased cell survival and viability in a dose-dependent manner; also recorded: increased astrocyte viability and reduced astrocyte death”. The “absorbance after subtraction … avg” value (C8-D1A cells; [4]) was 0.560 and 0.5597, the “absorbance after subtraction … replicates 1-3” value (C8-D1A cells; [4]) was 0.551 and 0.541 and 0.588 and the “raw absorbance Avg.” value (C8-D1A cells; [4]) was 1.004. The “raw absorbance, replicates 1-3” value (C8-D1A cells; [4]) was 0.9946 and 0.985 and 1.0316, the “absorbance after subtraction … avg” value (C8-D1A cells; [5]) was 0.555 and 0.5549 and the “absorbance after subtraction … replicates 1-3” value (C8-D1A cells; [5]) was 0.563 and 0.524 and 0.578. For the same molecule, the “raw absorbance Avg.” value (C8-D1A cells; [5]) was 0.9989, the “raw absorbance, replicates 1-3” value (C8-D1A cells; [5]) was 0.9676 and 1.0219 and 1.0073 and the “absorbance after subtraction … avg” value (C8-D1A cells; [6]) was 0.392 and 0.3915. The “absorbance after subtraction … replicates 1-3” value (C8-D1A cells; [6]) was 0.416 and 0.399 and 0.360, the “raw absorbance Avg.” value (C8-D1A cells; [6]) was 0.8355 and the “raw absorbance, replicates 1-3” value (C8-D1A cells; [6]) was 0.8604 and 0.8427 and 0.8035. For the same molecule, the “absorbance after subtraction … avg” value (C8-D1A cells; [7]) was 0.412 and 0.4123, the “absorbance after subtraction … replicates 1-3” value (C8-D1A cells; [7]) was 0.434 and 0.390 and 0.414 and the “raw absorbance Avg.” value (C8-D1A cells; [7]) was 0.8563. The “raw absorbance, replicates 1-3” value (C8-D1A cells; [7]) was 0.8335 and 0.8579 and 0.8776, the “absorbance after subtraction … avg” value (C8-D1A cells; [8]) was 0.070 and 0.07003 and the “absorbance after subtraction … replicates 1-3” value (C8-D1A cells; [8]) was 0.029 and 0.072 and 0.109. The “raw absorbance Avg.” value (C8-D1A cells; [8]) was 0.514, the “raw absorbance, replicates 1-3” value (C8-D1A cells; [8]) was 0.4731 and 0.5164 and 0.5526 and the “absorbance after subtraction … avg” value (C8-D1A cells; [9]) was 0.128 and 0.1278. For the same molecule, the “absorbance after subtraction … replicates 1-3” value (C8-D1A cells; [9]) was 0.125 and 0.138 and 0.120, the “raw absorbance Avg.” value (C8-D1A cells; [9]) was 0.5718 and the “raw absorbance, replicates 1-3” value (C8-D1A cells; [9]) was 0.5823 and 0.5639 and 0.5691. For the same molecule, the “absorbance after subtraction … replicates 1-3” value (C8-D1A cells; [10]) was −0.021 and −0.023 and −0.022, the “raw absorbance Avg.” value (C8-D1A cells; [10]) was 0.4217 and the “raw absorbance, replicates 1-3” value (C8-D1A cells; [10]) was 0.4228 and 0.4206 and 0.4217. For the same molecule, the “absorbance after subtraction … replicates 1-3” value (C8-D1A cells; [11]) was −0.027 and −0.023 and −0.015, the “raw absorbance Avg.” value (C8-D1A cells; [11]) was 0.4222 and the “raw absorbance, replicates 1-3” value (C8-D1A cells; [11]) was 0.4209 and 0.429 and 0.4166. The “absorbance after subtraction … replicates 1-3” value (C8-D1A cells; [12]) was −0.018 and −0.017 and −0.014, the “raw absorbance Avg.” value (C8-D1A cells; [12]) was 0.4274 and the “raw absorbance, replicates 1-3” value (C8-D1A cells; [12]) was 0.4258 and 0.4267 and 0.4296. For the same molecule, the “absorbance after subtraction … replicates 1-3” value (C8-D1A cells; [13]) was −0.015 and −0.016 and −0.013, the “raw absorbance Avg.” value (C8-D1A cells; [13]) was 0.4291 and the “raw absorbance, replicates 1-3” value (C8-D1A cells; [13]) was 0.4277 and 0.4307 and 0.4289. The “absorbance after subtraction … replicates 1-3” value (C8-D1A cells; [14]) was −0.001 and −0.006 and 0.000, the “raw absorbance Avg.” value (C8-D1A cells; [14]) was 0.4415 and the “raw absorbance, replicates 1-3” value (C8-D1A cells; [14]) was 0.4431 and 0.4376 and 0.4439. The “absorbance after subtraction … avg” value (C8-D1A cells; [15]) was 0.005 and 0.004833, the “absorbance after subtraction … replicates 1-3” value (C8-D1A cells; [15]) was 0.002 and 0.004 and 0.008 and the “raw absorbance Avg.” value (C8-D1A cells; [15]) was 0.4488. The “raw absorbance, replicates 1-3” value (C8-D1A cells; [15]) was 0.4484 and 0.4523 and 0.4458, the viability at 0.05 µM (C8-D1A cells; [16]) was 12% and the viability at 0.1 µM (C8-D1A cells; [16]) was 23%. For the same molecule, the “% cells apoptosed” value (C8-D1A cells; TNFa + H2O2 + NPD1 50 nM (TNFa + H2O2 alone: 99)) was 88%, the “% cells apoptosed” value (C8-D1A cells; TNFa + H2O2 + NPD1 100 nM (TNFa + H2O2 alone: 99)) was 77% and the viability at 24 h, 100 nM [1] was 95.6%. For the same molecule, the “cell viability (in words)” value (NSC34 cells; 100 nM NPD1, 24 hours with H2O2 and 10 ng/ml TNFα) was “increased cell viability”, the viability at 0.1 µM (NSC34 cells; Mus musculus, NSC-34, read-out: % cell viability) was 78% and the “% Cell Viability” value (NSC34 cells; [17]) was 105.1%. The “Avg Abs 450 nm” value (NSC34 cells; [17]) was 0.7104, the “% Cell Viability” value (NSC34 cells; [18]) was 95.6% and the “Avg Abs 450 nm” value (NSC34 cells; [18]) was 0.645. The “% Cell Viability” value (NSC34 cells; NPD 100 nM + TNFa 10 ng/ml + H2O2 10 uM, 24 hrs, listed as NPD) was 95.45%, the “% Cell Viability” value (NSC34 cells; [19]) was 74.46% and the “Avg Abs 450 nm” value (NSC34 cells; [19]) was 0.5031. The “% Cell Viability” value (NSC34 cells; [20]) was 78.22%, the “Avg Abs 450 nm” value (NSC34 cells; [20]) was 0.5285 and the “% Cell Viability” value (NSC34 cells; [21]) was 78.26%. The “Avg Abs 450 nm” value (NSC34 cells; [21]) was 0.5288, the “% Cell Viability” value (NSC34 cells; [22]) was 81.41% and the “Avg Abs 450 nm” value (NSC34 cells; [22]) was 0.5501. For the same molecule, the “Avg Abs 450 nm” value (NSC34 cells; NPD 100 nM alone, 24 hrs incub.) was 0.6462, the “Percent saved with NPD1 (14/36)” value (NSC34 cells; NPD1 100 nM vs TNFa + H2O2 alone) was 39% and the “cell viability (in words)” value (NSC34 cells; NPD1 added to cells treated with 50-800 μM H2O2 and 10 ng/ml TNFα) was “increases in cell viability”. The “% cells apoptosed” value (NSC34 cells; TNFa + H2O2 + NPD1 100 nM (TNFa + H2O2 alone: 36)) was 22%.

Reference: patent US9340483B2, “Methods of treating amyotrophic lateral sclerosis” (Anida Pharma Inc., priority 2012, dated 2016)
